Assay results from patent US8293763B2, “8-anilinoimidazopyridines and their use as anti-cancer and/or anti-inflammatory agents” (Genentech, Inc., priority 2007, dated 2012).

Key:
[1] = test system: phospho-ERK; experiment: Phospho-ERK Cell-Based Assay (ELISA), HCT116; conditions: Homo sapiens, HCT-116; HCT116 cell line, 2 h or 24 h exposure
Procedure: Phospho-ERK Cell-Based Assay
Compounds are tested in a cell-based phospho-ERK ELISA using the following cell lines:
(§1) HCT116 human colorectal carcinoma (ATCC)
(§2) Both cell lines are maintained in DMEM/F12 (1:1) media (Gibco) supplemented with 10% FCS at 37° C. in a 5% CO2 humidified incubator.
Cells are seeded in 96-well plates at 2,000 cells/well and after 24 h they are exposed to different concentrations of compounds in 0.83% DMSO. Cells are grown for a further 2 h or 24 h, fixed with formaldehyde (2% final) and permeabilised with methanol. Following blocking with TBST-3% BSA, fixed cells are incubated with primary antibody (anti-phospho ERK from rabbit) over-night at 4° C. Cells are incubated with Propidium Iodide (DNA fluorescent dye) and detection of cellular p-ERK is performed using an anti-rabbit secondary antibody conjugated to the fluorescent Alexa Fluor 488 dye (Molecular probes). The fluorescence is analysed using the Acumen Explorer (TTP Labtech), a laser-scanning microplate cytometer, and the Alexa Fluor 488 signal is normalised to the PI signal (proportional to cell number).
The EC50 is defined as the concentration at which a given compound achieves a signal half way between the baseline and the maximum response. EC50 values are calculated using the XLfit software package (version 2.0.5).

[2] = test system: HCT116 human colorectal carcinoma; experiment: Cell Proliferation Assay (CellTiter-Glo), HCT116; type: cell-based; conditions: HCT-116, HCT116 cell line, 72 h exposure
Procedure: Compounds are tested in a cell proliferation assay using the following cell lines:
as §1, §2
Cells are seeded in 96-well plates at 2,000 cells/well and after 24 hours they are exposed to different concentrations of compounds in 0.83% DMSO. Cells are grown for a further 72 h, and an equal volume of CellTiter-Glo reagent (Promega) is added to each well. This lyses the cells and generates a luminescent signal proportional to the amount of ATP released (and therefore proportional to the number of cells in the well) that can be detected using a multi-well luminometer.
The EC50 is defined as the concentration at which a given compound achieves 50% inhibition of control. IC50 values are calculated using the XLfit software package (version 2.0.5).

- EC50 [1]: < 0.2 µM
- EC50 [2]: < 0.1 µM
SMILES: C[C@H](O)CONC(=O)c1ccn2cncc2c1Nc1ccc(Br)cc1F [Example 12, 8-(4-Bromo-2-fluoro-phenylamino)-imidazo[1,5-a]pyridine-7-carboxylic acid ((S)-2-hydroxy-propoxy)-amide]
